pIC50, pKd: −log10 of the molar value. Where a name gives a salt, the structure may show the parent alone. Read-outs that look alike come from different tables or passages of the source.
Experiments:
[1] = molecular target: T1, wild type human RORγt ligand binding domain (RORyt LBD) (Homo sapiens, UniProt P51449); experiment: RORγt ThermoFluor assay (thermal shift, binding affinity KD)
T1 construct: His-tag (N); TurboTEV protease cleavage site (ENLYFQG) (N); made in house; host or cells: E. coli (pHIS1, modified pET vector)
T1 sequence (P51449 258-518): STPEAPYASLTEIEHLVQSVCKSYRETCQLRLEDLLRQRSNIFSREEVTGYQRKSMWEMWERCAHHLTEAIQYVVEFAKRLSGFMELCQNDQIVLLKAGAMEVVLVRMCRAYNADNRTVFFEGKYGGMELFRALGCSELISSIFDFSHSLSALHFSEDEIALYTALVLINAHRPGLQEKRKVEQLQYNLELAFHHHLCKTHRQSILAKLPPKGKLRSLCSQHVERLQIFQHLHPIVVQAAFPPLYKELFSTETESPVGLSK

[2] = molecular target: T2, wild type human RORγt LBD (Homo sapiens, UniProt P51449); experiment: RORγt (LBD) Reporter Assay (GAL4-luciferase, HEK293T cells); format: cell-based; settings: for inhibition at 6 µM: HEK-293T, read-out: RORγt (LBD) Reporter Assay, % inhibition @ 6 µM, 6 µM compound concentration
T2 construct: expressed in transfected cells; host or cells: HEK293T
T2 sequence (P51449 258-518): T1 sequence (P51449 258-518)

[3] = HEK293T cells, value after the comma with ∼, > or < could not be included in the average

| Compound | pKd [1] | pIC50 ([2]; HEK293T cells) | inhibition at 6 µM ([2]; HEK293T cells) | pIC50 [2, 3] | inhibition at 6 µM [2] |
| --- | --- | --- | --- | --- | --- |
| COC1CN(c2nc3ccc(C(O)(c4ccc(C(F)(F)F)nc4)c4cncn4C)cc3c(Cl)c2Cc2ccc(-n3cccn3)cc2)C1 (single isomer, unassigned) [Example 133b, {4-Chloro-2-(3-methoxyazetidin-1-yl)-3-[4-(1H-pyrazol-1-yl)benzyl]quinolin-6-yl}(1-methyl-1H-imidazol-5-yl)[6-(trifluoromethyl)pyridin-3-yl]methanol] | 6.48 | 6.08 | 99% |  |  |
| COc1nc2ccc(C(O)(c3ccc(C)nc3C)c3cnnn3C)cc2c(Cl)c1Cc1ccc(C)cc1 (single isomer, unassigned) [Example 20b, (4-Chloro-2-methoxy-3-(4-methylbenzyl)quinolin-6-yl)(2,6-dimethylpyridin-3-yl)(1-methyl-1H-1,2,3-triazol-5-yl)methanol] | 6.41 |  |  | 5.85 | 84% |
| CCc1nc2ccc(C(O)(c3ccc(C)nc3C)c3cnnn3C)cc2c(Cl)c1Cc1ccc(C(F)(F)F)cc1 (centres unmarked) [Example 23a, (4-Chloro-2-ethyl-3-(4-(trifluoromethyl)benzyl)quinolin-6-yl)(2,6-dimethylpyridin-3-yl)(1-methyl-1H-1,2,3-triazol-5-yl)methanol] | 9.85 |  |  | 7.74 | 99% |
| COc1c(Cc2ccccc2)c(C(F)(F)F)nc2ccc(C(O)(c3ccc(C(F)(F)F)nc3)c3cncn3C)cc12 (centres unmarked) [Example 106a, (3-Benzyl-4-methoxy-2-(trifluoromethyl)quinolin-6-yl)(1-methyl-1H-imidazol-5-yl)(6-(trifluoromethyl)pyridin-3-yl)methanol•TFA] | 7.32 |  |  |  | 84% |
| CC(=O)N1CCC(C(O)(c2ccccc2)c2ccc3nc(Cl)c(Cc4cncnc4)c(OC(F)F)c3c2)CC1 (single isomer, unassigned) [Example 73b, 1-(4-((2-Chloro-4-(difluoromethoxy)-3-(pyrimidin-5-ylmethyl)quinolin-6-yl)(hydroxy)(phenyl)methyl)piperidin-1-yl)ethanone] | 7.36 |  |  | 6.15 | 35% |
| Cc1ccc(C(O)(c2ccc3nc(NC4CC4)c(Cc4ccc(C(F)(F)F)cc4)c(Cl)c3c2)c2cnnn2C)c(C)n1 (single isomer, unassigned) [Example 143b, {4-Chloro-2-(cyclopropylamino)-3-[4-(trifluoromethyl)benzyl]quinolin-6-yl}(2,6-dimethylpyridin-3-yl)(1-methyl-1H-1,2,3-triazol-5-yl)methanol] | 5.77 | 5.80 | 93% |  |  |
| COc1nc2ccc(C(O)(c3ccc(Cl)cc3)c3cccnc3)cc2c(Cl)c1Cc1ccc(-n2cccn2)cc1 (centres unmarked) [Example 62, (3-(4-(1H-pyrazol-1-yl)benzyl)4-chloro-2-methoxyquinolin-6-yl)(4-chlorophenyl)(pyridin-3-yl)methanol] | 7.39 |  |  | 6.92 | 107% |
| COc1nc2ccc(C(O)(c3sc(C)nc3C)c3cnnn3C)cc2cc1Cc1ccc(C(F)(F)F)cc1 (racemic) [Example 92a, (2,4-Dimethylthiazol-5-yl)(2-methoxy-3-(4-(trifluoromethyl)benzyl)quinolin-6-yl)(1-methyl-1H-1,2,3-triazol-5-yl)methanol] | 7.04 |  |  | 7.10 | 101% |
| COc1nc2ccc(C(O)(c3cncn3C)c3cncn3C)cc2c(Cl)c1Cc1ccc(C(F)(F)F)cc1 [Example 149, (4-Chloro-2-methoxy-3-(4-(trifluoromethyl)benzyl)quinolin-6-yl)bis(1-methyl-1H-imidazol-5-yl)methanol] | 9.47 | 8.62 | 96% |  |  |
| COc1nc2ccc(C(O)(c3cnnn3C)C3CN(C(=O)OC(C)(C)C)C3)cc2c(Cl)c1Cc1ccc(C(F)(F)F)cc1 (centres unmarked) [Example 123, tert-Butyl-3-((4-chloro-2-methoxy-3-(4-(trifluoromethyl)benzyl)quinolin-6-yl)(hydroxy)(1-methyl-1H-1,2,3-triazol-5-yl)methyl)azetidine-1-carboxylate] | 8.28 | 7.15 | 101% |  |  |

From patent publication EP3057951B1, “METHYLENE LINKED QUINOLINYL MODULATORS OF ROR-GAMMA-T” (Janssen Pharmaceutica NV, priority 2013, dated 2015)
